Values joined by “and” are separate entries in the source; they are usually repeats but may differ in a detail not shown here. Equal values may be shown once.
Conditions: Liquid, Flow apparatus with low residence time

CC1(C)CO1 [2,2-dimethyloxirane]
Conditions	Critical pressure [kPa]	Critical temperature [K]	vapor or sublimation pressure [kPa]
–	4350	499.9	–
320.1 K	–	–	87.08
339.1 K	–	–	165.1
365.6 K	–	–	348.9
393.2 K	–	–	678.4
428.2 K	–	–	1381
469.4 K	–	–	2760
496.4 K	–	–	4141
499.2 K	–	–	4306

CN(CCO)CCO [N-methyldiethanolamine]
Conditions	Critical pressure [kPa]	Critical temperature [K]	vapor or sublimation pressure [kPa]
–	4160	741.9	–
519.7 K	–	–	98.59
543.3 K	–	–	175.1
574.8 K	–	–	346.1
617.1 K	–	–	743.9
657.1 K	–	–	1389
707.5 K	–	–	2785
728.1 K	–	–	3475
735.4 K	–	–	3799
738.4 K	–	–	3985

CCCCSSCCCC [5,6-dithiadecane]
Conditions	vapor or sublimation pressure [kPa]
504.2 K	90.32
535.7 K	180.3
571.7 K	349.6
614.9 K	695.7

OCCCOCCCO [4-oxa-1,7-heptanediol]
Conditions	Critical pressure [kPa]	Critical temperature [K]	vapor or sublimation pressure [kPa]
–	3380	705.2	–
505 K	–	–	100.7
534.3 K	–	–	208.2
564.2 K	–	–	395.8
607.2 K	–	–	854.3
649.8 K	–	–	1631
689.9 K	–	–	2779
699.1 K	–	–	3123
703.4 K	–	–	3296

O=C=Nc1ccccc1 [phenyl isocyanate]
Conditions	Critical pressure [kPa]	Critical temperature [K]	vapor or sublimation pressure [kPa]
–	4000	656.9	–
479.7 K	–	–	278.9
553.2 K	–	–	1038
588.3 K	–	–	1724
618.6 K	–	–	2551
653 K	–	–	3795
653.1 K	–	–	3793

CC(C)c1ccc(C(C)C)cc1 [1,4-diisopropylbenzene]
Conditions	Critical pressure [kPa]	Critical temperature [K]	vapor or sublimation pressure
–	2360	676.2	–
518 K	–	–	217.1 kPa
552.6 K	–	–	416.3 kPa
596.8 K	–	–	837.8 kPa
648.1 K	–	–	1669 kPa and 1667 kPa
666.2 K	–	–	2078 kPa
672.3 K	–	–	2258 kPa
675.9 K	–	–	2325 kPa

C=CC(=O)OCCCC [butyl 2-propenoate]
Conditions	Critical pressure [kPa]	Critical temperature [K]	vapor or sublimation pressure [kPa]
–	2840	601.2	–
441.9 K	–	–	178.6
471.9 K	–	–	351.6
506.5 K	–	–	689.5
549.3 K	–	–	1380
599.1 K	–	–	2761

O=CN1CCOCC1 [N-formylmorpholine]
Conditions	Critical pressure [kPa]	Critical temperature [K]	vapor or sublimation pressure [kPa]
–	5080	779.3	–
507.5 K	–	–	91.7
538 K	–	–	174.8
573.2 K	–	–	343.4
614.6 K	–	–	688.1
663.6 K	–	–	1379
664.7 K	–	–	1382
723.7 K	–	–	2761
745.2 K	–	–	3447
762.7 K	–	–	4137
775.2 K	–	–	4826
777.7 K	–	–	4999

CCOC(=O)C(=O)OCC [diethyl ethanedioate]
Conditions	Critical pressure [kPa]	Critical temperature [K]	vapor or sublimation pressure [kPa]
–	3060	645.8	–
454.6 K	–	–	90.67
481.8 K	–	–	182.4
512.9 K	–	–	359.9
547.3 K	–	–	690.9
590.1 K	–	–	1381
638.8 K	–	–	2761
642.5 K	–	–	2934
644.4 K	–	–	3013

O=S1(=O)CCCC1 [sulfolane]
Conditions	vapor or sublimation pressure [kPa]
560.2 K	103.6
594.4 K	203.9
626.3 K	350.2
656.3 K	556.8
685.1 K	829.2
713.2 K	1181
742 K	1665
773.4 K	2363
802.7 K	3185
829 K	4144

O=C1CCCO1 [γ-butyrolactone]
Conditions	Critical pressure [kPa]	Critical temperature [K]	vapor or sublimation pressure [kPa]
–	5100	732.5	–
474.9 K	–	–	93.29
501.8 K	–	–	174.7
532.5 K	–	–	325.8
562.6 K	–	–	558.5
600 K	–	–	1005
639 K	–	–	1723
673.8 K	–	–	2643
696.7 K	–	–	3454
713.8 K	–	–	4147
726.8 K	–	–	4779
730.8 K	–	–	5013

CC(=O)OC(C)OC(C)=O [ethylidene diethanoate]
Conditions	Critical pressure [kPa]	Critical temperature [K]	vapor or sublimation pressure [kPa]
–	2970	618.2	–
461.6 K	–	–	177.6
486.4 K	–	–	314.3
514.2 K	–	–	555.5
541.2 K	–	–	902.2
571.5 K	–	–	1457
601.1 K	–	–	2286
608.2 K	–	–	2561
612 K	–	–	2697

CSSC [2,3-dithiabutane]
Conditions	Critical pressure [kPa]	Critical temperature [K]	vapor or sublimation pressure [kPa]
–	5070	607.8	–
466.3 K	–	–	690
500.8 K	–	–	1244
533.1 K	–	–	2002
561 K	–	–	2897
591.4 K	–	–	4205
604.8 K	–	–	4902
607.2 K	–	–	5037

NCCOCCO [2-(2-aminoethoxy)ethanol]
Conditions	Critical pressure [kPa]	Critical temperature [K]	vapor or sublimation pressure [kPa]
–	4800	721.2	–
500.9 K	–	–	117.3
526.9 K	–	–	225.2
564.9 K	–	–	496.6
594.2 K	–	–	842.6
625.9 K	–	–	1395
653.9 K	–	–	2085
685 K	–	–	3130
716.5 K	–	–	4521
719.4 K	–	–	4729

c1cocn1 [1,3-oxazole]
Conditions	Critical pressure [kPa]	Critical temperature [K]	vapor or sublimation pressure [kPa]
–	6770	550.8	–
479 K	–	–	2424
494.6 K	–	–	3116
514.9 K	–	–	4146
535.5 K	–	–	5523
547.4 K	–	–	6492

CC(=O)OC(C)(C)C [1,1-dimethylethyl ethanoate]
Conditions	Critical pressure [kPa]	Critical temperature [K]	vapor or sublimation pressure [kPa]
–	3040	541.2	–
472.7 K	–	–	1053
495 K	–	–	1527
514.5 K	–	–	2074
533.7 K	–	–	2722
535.7 K	–	–	2802
535.9 K	–	–	2801
536.4 K	–	–	2835
537.3 K	–	–	2868
537.7 K	–	–	2903
538.6 K	–	–	2949

CC(O)CCO (stereo not given) [1,3-butanediol]
Conditions	Critical pressure [kPa]	Critical temperature [K]	vapor or sublimation pressure [kPa]
–	5180	692.4	–
481.4 K	–	–	100.2
508.1 K	–	–	209.6
537.8 K	–	–	418.5
576 K	–	–	898.4
614.7 K	–	–	1719
646.7 K	–	–	2774
662.5 K	–	–	3462
676.7 K	–	–	4158
688.2 K	–	–	4840

Source: the NIST ThermoML archive (doi:10.1021/je060269j)
